The text below walks through data of paper PMC3857149, “Identification of Three Antiviral Inhibitors against Japanese Encephalitis Virus from Library of Pharmacologically Active Compounds 1280” (PLoS ONE, 2013).

One data set relates to JEV (P3 strain). As to the kind of experiment: CPE-based EC50 assay, JEV-infected BHK-21 cells. It is filed as cell-based, Japanese encephalitis virus. To be noted: for EC50: Japanese encephalitis virus, BHK-21, 120 h; for selectivity index: from CC50 and EC50 in BHK-21 cells. As to the method:
(§1) Cell viability was evaluated by Celltiter-Glo Luminescent Cell Viability Assay reagent (Promega, Madison, WI, USA) following the manufacturer's protocol. An equal volume of Celltiter-Glo reagents was added to the cells in 96-well white plates (Corning, Tewksbury, MA, USA) and mixed for 2 min on an orbital shaker and incubated for a further 10 min at room temperature. The luminescence of each well was measured by a 1450 MicroBeta TriLux (Perkin Elmer, Waltham, MA, USA). Percentage of cell viability was calculated as follows: Percentage of cell viability = 100× (luminescence of experimental group/luminescence of control group).
BHK-21 cells were seeded onto 96-well plates at 10,000 cells per well. After 12 h incubation, the culture supernatant was replaced with maintenance medium. One microliter of each compound was added to 99 µL maintenance medium in the first well, followed by twofold serial dilutions for two wells. After full mixing in the third well, 50 µL medium was discarded. Then, 50 µL maintenance medium containing 0.02 MOI JEV was added to each well. The plates were subjected to 30 s horizontal shaking to achieve thorough mixing. Three wells of mock-infected cells as well as three wells of JEV-infected cells containing 1% DMSO were set on each plate as controls. After 120 h incubation, the percentage of CPE inhibition was calculated as previously described: Percentage of inhibition = (luminescence of experimental group – average luminescence of virus control) / (average luminescence of cell control – average luminescence of virus control) ×100.
BHK-21 cells were seeded in 96-well white plates at 10,000 cells per well. Twelve hours later, the growth medium was replaced with maintenance medium containing 0.01 MOI JEV as well as different concentrations of compounds. Cell incubation was continued for 120 h, and the percentage of inhibition was measured as described above. The EC50 values were calculated by nonlinear regression analysis.

Data set [1] concerns JEV. In words: Indirect immunofluorescence assay (IFA, anti-NS5) in infected BHK-21 cells. It is filed as cell-based, Japanese encephalitis virus. The settings on record: MOI 0.01, 48 h post-infection; for JEV-negative cells: 5 µM compound; for JEV replication / JEV-positive cells (IFA): 20 µM compound. As to the method: BHK-21 cells were seeded in 12-well plates and inoculated with JEV at MOI 0.01 after 12 h incubation. The compounds were added to cells at concentrations of 5 or 20 µM. After incubation for a further 48 h, virus replication in the cells was evaluated by IFA. The cells were fixed in formaldehyde for 5 min and were incubated with anti-NS5 Mab (1∶500) and then FITC-conjugated goat anti-mouse antibody (Boster) for 30 min respectively. Finally, the cells were stained with DAPI (Sigma-Aldrich) and imaged by a fluorescence microscope (Olympus IX70; Olympus, Tokyo, Japan).

For data set [2] the following is noted: cited from earlier work.
Data set [3] relates to JEV. In words: Plaque reduction assay. It is filed as cell-based, Japanese encephalitis virus. The protocol:
BHK-21 cells were plated in 96-well plates at a density of 10,000 cells per well and grown for 12 h for cell attachment. The cells were infected with JEV at MOI 0.01 in the presence of different concentrations (20, 15, 10, and 5 µM) of compounds. Each concentration was assayed in triplicate. Forty-eight hours post-infection, the viruses in each group were harvested by freezing/thawing three times and mixed in a tube. Then, 50 µL virus suspension was inoculated into BHK-21 cells in 12-well plates for the plaque assay, as previously described.
In general terms: Plaques are areas of infected cells; plaque reduction assays count them against a control.

Data set [4] in a line: Cytotoxicity of compounds (Celltiter-Glo cell viability). The settings on record: hamster; BHK-21 cells, 120 h incubation; read-out: CC50 (50% cytotoxicity concentration). It is filed as cell-based. As to the method: as §1
BHK-21 cells were seeded in 96-well white plates at 10,000 cells per well. After 12 h incubation for cell attachment, different concentrations of compounds were added to the cells. Cell viability was tested as described above after 120 h incubation. The 50% cytotoxicity concentration (CC50) was calculated by nonlinear regression analysis.
Background: Cellular ATP, detected with luciferase, serves as a proxy for viable cell number.

For data set [5], the system named is JEV. In words: Western blotting of JEV envelope (E) protein expression in infected BHK-21 cells. It is filed as cell-based, Japanese encephalitis virus. To be noted: MOI 0.01, 48 h, normalized to GAPDH. As to the method:
BHK-21 cells in 12-well plates were infected with JEV at MOI 0.01. The compounds were then added to cells at final concentrations of 10 and 20 µM. After incubation for 48 h, expression of JEV envelope (E) protein was detected by western blotting. The cells were collected after trypsin digestion and washed in PBS. The cell suspension was mixed with an equal volume of 2×SDS sample buffer. The proteins were electrophoresed in 12% SDS-PAGE and transferred to a nitrocellulose filter membrane (Millipore, Darmstadt, Germany). Western blotting was performed with JEV E protein-specific monoclonal antibody (Mab; 1∶500, constructed in our laboratory) or GAPDH-specific Mab (1∶1000; Proteintech, Chicago, IL, USA) as the primary antibodies, followed by addition of horseradish-peroxidase-conjugated goat anti-mouse IgG (Boster, Wuhan, China) as the secondary antibody. Finally, the protein blots were detected with SuperSignal West Pico Chemiluminescent Substrate (Thermo Scientific, Rockford, IL, USA) and imaged by a MF-ChemiBIS 3.2 (DNR Bio-Imaging Systems, Mahale Hahamisha, Israel). The expression of E and GAPDH was quantified by gray-value analysis using software ImageJ. The expression of E protein was normalized by the expression of GAPDH and the changes of E expression were calculated by comparing to the non-compound treated group.

For data set [6] the following is noted: cited from earlier work. The source holds these as a separate data set.

Each structure is given as a SMILES string. Where only a bound is given, the exact number is not on record here.

For `CCCCCCN(CCCCCC)C(=O)Cc1c(-c2ccc(F)cc2)[nH]c2ccccc12` [FGIN-1-27, N,N-dihexyl-2-(4-fluorophenyl)indole-3-acetamide], in the data set on JEV (P3 strain), the response was half-maximal at 3.21 µM (EC50) and the selectivity index is recorded as 38.79. In addition, in the data set with JEV [1], the JEV-negative cells result is listed as “about 80%” and the “JEV replication / JEV-positive cells (IFA)” value is listed as “few cells were JEV-positive”. The “ability to enter the brain” value in data set [2] is “had the ability to enter the brain”. Also, the number of plaques in the data set on JEV [3] (10 µM compound, 48 h, MOI 0.01) is on record as below 20. The compound further gave a virus titer with JEV [3] (10 µM compound, 48 h, MOI 0.01, untreated 2.7×10^6 PFU/mL) below 400 PFU/mL. Also, in data set [4], the CC50 at 120 h was 124 µM.

As to `COCCOC(=O)C1=C(C)NC(C)=C(C(=O)OC/C=C/c2ccccc2)C1c1cccc([N+](=O)[O-])c1` (centres unmarked) [cilnidipine], the “E expression decrease (gray-value analysis)” value (“E expression decrease” below) with JEV [5] (10 µM compound) is recorded as around 56%. The “E expression decrease” value in the data set on JEV [5] (20 µM compound) is given as around 75%. Besides, the MLD50 in data set [6] was above 5000 mg/kg. In the data set on JEV (P3 strain), the EC50 (usually the concentration at which the effect is half-maximal) came to 6.52 µM and the selectivity index worked out at 30.67. In the data set on JEV [1], the JEV-negative cells is reported as around 60% and the “JEV replication / JEV-positive cells (IFA)” value is recorded as “Absolute inhibition of JEV replication”. The “replication of JEV” value in the data set with JEV [3] (20 or 15 µM compound) was “almost completely inhibited”. The CC50 at 120 h in data set [4] was above 200 µM.

For the compound `O=C(Nc1ccc([N+](=O)[O-])cc1Cl)c1cc(Cl)ccc1O` [niclosamide], the “E expression decrease” value with JEV [5] (10 µM compound) was “about 85%”. For the same compound, in the data set with JEV (P3 strain), the EC50 is 5.8 µM and the selectivity index was 7.49. In the data set with JEV [1], the JEV-negative cells is around 30% and the “JEV replication / JEV-positive cells (IFA)” value is “few cells were JEV-positive”. In addition, the CC50 at 120 h in data set [4] worked out at 43.3 µM.
